# From patent US7718393B2, “Method for determining the efficacy of an anthracycline anticancer agent” (Sysmex Corporation, priority 2006, dated 2010)
# What was measured:
# Format in all cases: cell-based, human
# MDA-MB-453 = assay: Cell growth test with or without doxorubicin, MDA-MB-453; conditions: MDA-MB-453, 1 μM doxorubicin, FIG. 8
# MDA-MB-231 = assay: Cell growth test with or without doxorubicin, MDA-MB-231; conditions: MDA-MB-231, 1 μM doxorubicin, FIGS. 6 and 11
# Text: (§1) Human breast cancer cells MCF-7, T47-D, SK-B-3, SK-Br-3, MDA-MB-231 and MDA-MB-468 were purchased from American Type Culture Collection (ATCC). 38 cancer cell samples (Nos. 1 to 38) were excised from 38 breast cancer patients with invasive breast cancer classified in stages I to IIIb according to the breast cancer stage classification. The 38 breast cancer patients are those who after removal of cancer tissue, received chemotherapy consisting essentially of administration of anthracycline anticancer agents. Each human breast cancer cell or cancer tissue was proliferated in Eagle's modified minimum essential medium (GIBCO) (hereinafter referred to merely as medium) containing 10% FCS (Commonwealth Laboratories), 1% (v/v) nonessential amino acid (GIBCO), 2 mM L-glutamine (Sigma Chemical), 100 μg/ml streptomycin (GIBCO), 100 U/ml penicillin (GIBCO) and 0.28 μg/ml fungizone (Squib Pharmaceuticals) in a humidified atmosphere of 5% CO2/95% air at 37° C. 3.0×10^3 human breast cancer cells or cancer tissue were inoculated onto a medium in a 96-well plate and cultured for 1 day in a humidified atmosphere of 5% CO2/95% air at 37° C. Thereafter, the medium was exchanged with a medium with or without 1 μM doxorubicin. Cell proliferation after 0, 24, 48 and 72 hours was measured by using a cell proliferation assay kit (Nippon Chemi-Con Corporation) or Cell Titer-Glo Luminescent Cell Viability assay (Promega) in accordance with its manufacturer's instructions.
# MCF-7 = assay: Cell growth test with or without doxorubicin, MCF-7; conditions: MCF-7, 1 μM doxorubicin, FIG. 3
# Text: as §1
# SK-Br-3 = assay: Cell growth test with or without doxorubicin, SK-Br-3; conditions: SK-Br-3, 1 μM doxorubicin, FIGS. 5 and 10
# Text: as §1, with “Thereafter, the medium was exchanged with a medium with or without 1 μM doxorubicin.” left out
# MDA-MB-468 = assay: Cell growth test with or without doxorubicin, MDA-MB-468; conditions: MDA-MB-468, 1 μM doxorubicin, FIGS. 7 and 9
# Text: as §1, with “Thereafter, the medium was exchanged with a medium with or without 1 μM doxorubicin.” left out
# T47-D = assay: Cell growth test with or without doxorubicin, T47-D; conditions: 1 μM doxorubicin, FIG. 4
# Text: as §1, with “Thereafter, the medium was exchanged with a medium with or without 1 μM doxorubicin.” left out
structure (smiles),measurement,setting,value
COc1cccc2c1C(=O)c1c(O)c3c(c(O)c1C2=O)C[C@@](O)(C(=O)CO)C[C@@H]3O[C@H]1C[C@H](N)[C@H](O)[C@H](C)O1 [doxorubicin],Living cells from 0 hour after administration,MDA-MB-453; 0 to 72 hours,gradually decreased with time
same,Induction of apotosis,MDA-MB-453; 72 hours,so high that the living cells hardly remain after 72 hours
same,Cell proliferation as compared with the control,MDA-MB-231; 0 to 72 hours,suppressed
same,Living cells from 0 hour after administration,MDA-MB-231; 0 to 72 hours,hardly changed or are increased
same,Induction of apotosis,MDA-MB-231,very low
same,Cell proliferation as compared with the control,MCF-7; 0 to 72 hours,suppressed
same,Living cells from 0 hour after administration,MCF-7; 0 to 72 hours,hardly changed or are increased
same,Induction of apotosis,MCF-7,very low
same,Living cells from 0 hour after administration,SK-Br-3; 0 to 72 hours,gradually decreased with time
same,Induction of apotosis,SK-Br-3; 72 hours,so high that the living cells hardly remain after 72 hours
same,Living cells from 0 hour after administration,MDA-MB-468; 0 to 72 hours,gradually decreased with time
same,Induction of apotosis,MDA-MB-468,"induced, but the effect thereon can be seen to be lower"
same,Living cells from 0 hour after administration,T47-D; 0 to 72 hours,gradually decreased with time
same,Induction of apotosis,T47-D,"induced, but the effect thereon can be seen to be lower"
